Values quoted from earlier work as cited in publication PMC7395068, “The evolution of strategies to minimise the risk of human drug-induced liver injury (DILI) in drug discovery and development” (Archives of Toxicology, 2020).
Structures can show the parent of a compound that is named as a salt. Where two headings read alike, the source gives them in different places.

How the values were obtained:
[1] = cited from earlier work
human hepatocytes = settings: cited from earlier work
[2] = cited from earlier work; remark: listed apart in the source
[3] = system: THLE or HepG2 cells, isolated mitochondria, BSEP; settings: cited from earlier work
[4] = human hepatocyte imaging, ref Xu 2008
[5] = assignment in Xu 2008, ref Xu 2008
[6] = binary in vivo human DILI call, ref Chen 2016
[7] = human DILI, LTKB DILIrank category, ref Chen 2016

Compound: N[C@@H]1C[C@H]1c1ccccc1 (racemic) [tranylcypromine]
- DILI +VE (5-8), DILI -VE (-4) ([1]; binary in vivo DILI call given beside the severity category, ref Chen 2016): +VE
- DILI severity category ([1]; human DILI concern category (LTKB DILIrank), ref Chen 2016): vLess-DILI-Concern
- Structural based (HCI), In vitro Assay (human hepatocytes; [4]): -VE
- In vivo DILI [2, 5]: -VE

Compound: CC(=O)OCC[N+](C)(C)C [acetylcholine chloride]
- DILI +VE (5-8), DILI -VE (-4) ([1]; ref Chen 2016): -VE
- DILI severity category ([1]; ref Chen 2016): vNo-DILI-Concern
- Structural based (HCI) (human hepatocytes; In vitro Assay, ref Xu 2008): -VE
- In vivo DILI ([2]; ref Xu 2008): -VE

Compound: Oc1ncnc2[nH]ncc12 [allopurinol]
- DILI +VE (5-8), DILI -VE (-4) ([1]; ref Chen 2016): +VE
- DILI severity category ([1]; ref Chen 2016): vMost-DILI-Concern
- Structural based (HCI) (human hepatocytes; In vitro Assay, ref Xu 2008): +VE
- Partition Hybrid HRM Score ([3]; In vitro Assay, ref Aleo 2019): +VE
- Ro2 Hybrid HRM Score ([3]; In vitro Assay, ref Aleo 2019): -VE
- In vivo DILI ([2]; […]): +VE
- In vivo DILI ([2]; ref Aleo 2019): +VE
- In vivo DILI ([2]; ref Xu 2008): +VE

Compound: CN/C(=N/CCSCc1nc[nH]c1C)NC#N [cimetidine]
- DILI +VE (5-8), DILI -VE (-4) ([1]; ref Chen 2016): +VE
- DILI severity category ([1]; ref Chen 2016): vLess-DILI-Concern
- Structural based (HCI) (human hepatocytes; In vitro Assay, ref Xu 2008): -VE
- In vivo DILI ([2]; […]): +VE
- In vivo DILI ([2]; ref Xu 2008): -VE

Compound: CN(C)CCCC1(c2ccc(F)cc2)OCc2cc(C#N)ccc21 (stereo not shown) [citalopram]
- DILI +VE (5-8), DILI -VE (-4) ([1]; in vivo): +VE
- DILI severity category ([1]; in vivo): vLess-DILI-Concern
- Structural based (HCI) (human hepatocytes): -VE
- In vivo DILI ([2]; in vivo): -VE

Compound: Nc1nc(Cl)nc2c1ncn2[C@H]1C[C@H](O)[C@@H](CO)O1 [cladribine]
- DILI +VE (5-8), DILI -VE (-4) ([1]; ref Chen 2016): -VE
- DILI severity category ([1]; ref Chen 2016): Ambiguous DILI-concern
- Structural based (HCI) (human hepatocytes; In vitro Assay, ref Xu 2008): -VE
- In vivo DILI ([2]; ref Xu 2008): -VE

Compound: CN1CCC(=C2c3ccccc3C=Cc3ccccc32)CC1 [cyproheptadine]
- DILI +VE (5-8), DILI -VE (-4) ([1]; ref Chen 2016): +VE
- DILI severity category ([1]; ref Chen 2016): vLess-DILI-Concern
- Structural based (HCI) (human hepatocytes; In vitro Assay, ref Xu 2008): +VE
- In vivo DILI ([2]; ref Xu 2008): +VE

Compound: CN(C)[C@@H]1C(O)=C(C(N)=O)C(=O)[C@@]2(O)C(O)=C3C(=O)c4c(O)ccc(Cl)c4[C@@H](O)[C@H]3C[C@@H]12 [demeclocycline]
- DILI +VE (5-8), DILI -VE (-4) [1, 6]: -VE
- DILI severity category [1, 7]: Ambiguous DILI-concern
- Structural based (HCI) (human hepatocytes; In vitro Assay, ref Xu 2008): -VE
- In vivo DILI ([2]; ref Xu 2008): +VE

Compound: COc1cc([C@@H]2c3cc4c(cc3[C@@H](O[C@@H]3O[C@@H]5CO[C@@H](C)O[C@H]5[C@H](O)[C@H]3O)[C@H]3COC(=O)[C@H]23)OCO4)cc(OC)c1O [etoposide]
- DILI +VE (5-8), DILI -VE (-4) ([1]; ref Chen 2016): +VE
- DILI severity category ([1]; ref Chen 2016): vLess-DILI-Concern
- Structural based (HCI) (human hepatocytes; In vitro Assay, ref Xu 2008): -VE
- In vivo DILI ([2]; […]): +VE
- In vivo DILI ([2]; ref O'Brien 2006): +VE
- In vivo DILI ([2]; ref Persson 2013): +VE
- In vivo DILI ([2]; ref Tolosa 2012): +VE
- In vivo DILI ([2]; ref Xu 2008): +VE

Compound: CC(=O)OCC(=O)[C@@]1(O)CC[C@H]2[C@@H]3CCC4=CC(=O)CC[C@]4(C)[C@@]3(F)[C@@H](O)C[C@@]21C [fludrocortisone acetate]
- Structural based (HCI) (human hepatocytes; In vitro Assay, ref Xu 2008): -VE
- Partition Hybrid HRM Score ([3]; In vitro Assay, ref Aleo 2019): -VE
- Ro2 Hybrid HRM Score ([3]; In vitro Assay, ref Aleo 2019): -VE
- In vivo DILI ([2]; ref Aleo 2019): -VE
- In vivo DILI ([2]; ref Xu 2008): -VE

Compound: NCC1(CC(=O)O)CCCCC1 [gabapentin]
- DILI +VE (5-8), DILI -VE (-4) ([1]; ref Chen 2016): +VE
- DILI severity category ([1]; ref Chen 2016): vLess-DILI-Concern
- Structural based (HCI) (human hepatocytes; In vitro Assay, ref Xu 2008): -VE
- In vivo DILI ([2]; ref Vorrink 2018): -VE
- In vivo DILI ([2]; ref Xu 2008): -VE

Compound: Cc1ccc(C)c(OCCCC(C)(C)C(=O)O)c1 [gemfibrozil]
- DILI +VE (5-8), DILI -VE (-4) ([1]; ref Chen 2016): +VE
- DILI severity category ([1]; ref Chen 2016): vMost-DILI-Concern
- Structural based (HCI) (human hepatocytes; In vitro Assay, ref Xu 2008): +VE
- In vivo DILI ([2]; ref Xu 2008): +VE

Compound: NS(=O)(=O)c1cc2c(cc1Cl)NCNS2(=O)=O [hydrochlorothiazide]
- DILI +VE (5-8), DILI -VE (-4) ([1]; in vivo): +VE
- DILI severity category ([1]; in vivo): vLess-DILI-Concern
- Structural based (HCI) (human hepatocytes): +VE
- In vivo DILI ([2]; in vivo): +VE

Compound: CC(=O)[C@]1(O)Cc2c(O)c3c(c(O)c2[C@@H](O[C@H]2C[C@H](N)[C@H](O)[C@H](C)O2)C1)C(=O)c1ccccc1C3=O [idarubicin]
- DILI +VE (5-8), DILI -VE (-4) [1, 6]: -VE
- DILI severity category [1, 7]: Ambiguous DILI-concern
- Structural based (HCI), In vitro Assay (human hepatocytes; [4]): -VE
- In vivo DILI [2, 5]: -VE

Compound: CC(COc1ccccc1)NC(C)C(O)c1ccc(O)cc1 (stereo not shown) [isoxsuprine]
- DILI +VE (5-8), DILI -VE (-4) ([1]; in vivo): -VE
- DILI severity category ([1]; in vivo): vNo-DILI-Concern
- Structural based (HCI), In vitro Assay (human hepatocytes): -VE
- In vivo DILI ([2]; in vivo): -VE

Compound: CC(C)NCC(O)c1cc(O)cc(O)c1 (stereo not shown) [metaproterenol sulfate]
- Structural based (HCI) (human hepatocytes; In vitro Assay, ref Xu 2008): -VE
- Partition Hybrid HRM Score ([3]; In vitro Assay, ref Aleo 2019): -VE
- Ro2 Hybrid HRM Score ([3]; In vitro Assay, ref Aleo 2019): -VE

Compound: CC[C@@H](CO)NC(=O)[C@@H]1C=C2c3cccc4c3c(cn4C)C[C@H]2N(C)C1 [methysergide maleate]
- Structural based (HCI) (human hepatocytes; In vitro Assay, ref Xu 2008): -VE
- Partition Hybrid HRM Score [3]: -VE
- Ro2 Hybrid HRM Score [3]: -VE
- In vivo DILI ([2]; ref Aleo 2019): -VE
- In vivo DILI ([2]; ref Xu 2008): -VE

Compound: Cc1ncc([N+](=O)[O-])n1CCO [metronidazole]
- Structural based (HCI) (human hepatocytes; In vitro Assay, ref Xu 2008): +VE
- Partition Hybrid HRM Score ([3]; In vitro Assay, ref Aleo 2019): -VE
- Ro2 Hybrid HRM Score ([3]; In vitro Assay, ref Aleo 2019): -VE

Compound: C[C@H]1C(=O)O[C@@H]2CCN3CC=C(COC(=O)[C@](C)(O)[C@]1(C)O)[C@H]23 [monocrotaline]
- Structural based (HCI), In vitro Assay (human hepatocytes): -VE
- In vivo DILI ([2]; in vivo): +VE

Compound: C=C1CC[C@@]2(O)[C@H]3Cc4ccc(O)c5c4[C@@]2(CCN3CC2CC2)[C@H]1O5 [nalmefene]
- Structural based (HCI), In vitro Assay (human hepatocytes; [4]): -VE
- In vivo DILI [2, 5]: -VE

Compound: CCCOc1ccc2[nH]c(NC(=O)OC)nc2c1 [oxybendazole]
- Structural based (HCI), In vitro Assay (human hepatocytes; [4]): -VE
- In vivo DILI [2, 5]: +VE

Compound: CN(C)CCCN1c2ccccc2Sc2ccccc21 [promazine]
- Structural based (HCI), In vitro Assay (human hepatocytes; [4]): -VE
- In vivo DILI [2, 5]: -VE

Compound: CN[C@@H](C)[C@@H](O)c1ccccc1 [pseudoephedrine]
- DILI +VE (5-8), DILI -VE (-4) ([1]; in vivo): -VE
- DILI severity category ([1]; in vivo): vNo-DILI-Concern
- Structural based (HCI), In vitro Assay (human hepatocytes): -VE
- In vivo DILI ([2]; in vivo): -VE

Compound: COc1ccc(C[C@H](N)C(=O)N[C@H]2[C@@H](O)[C@H](n3cnc4c(N(C)C)ncnc43)O[C@@H]2CO)cc1 [puromycin]
- Structural based (HCI), In vitro Assay (human hepatocytes; [4]): +VE
- In vivo DILI [2, 5]: +VE

Compound: CC1=C(/C=C/C(C)=C/C=C/C(C)=C/C(=O)O)C(C)(C)CCC1 [retinoic acid]
- Structural based (HCI) (human hepatocytes; In vitro Assay, ref Xu 2008): +VE
- In vivo DILI ([2]; […]): +VE
- In vivo DILI ([2]; ref Xu 2008): +VE

Compound: CN[C@H]1CC[C@@H](c2ccc(Cl)c(Cl)c2)c2ccccc21 [sertraline]
- DILI +VE (5-8), DILI -VE (-4) ([1]; ref Chen 2016): +VE
- DILI severity category ([1]; ref Chen 2016): vLess-DILI-Concern
- Structural based (HCI) (human hepatocytes; In vitro Assay, ref Xu 2008): -VE
- In vivo DILI ([2]; […]): -VE
- In vivo DILI ([2]; ref Xu 2008): -VE

Compound: CC(=O)S[C@@H]1CC2=CC(=O)CC[C@]2(C)[C@H]2CC[C@@]3(C)[C@@H](CC[C@@]34CCC(=O)O4)[C@H]12 [spironolactone]
- DILI +VE (5-8), DILI -VE (-4) ([1]; ref Chen 2016): +VE
- DILI severity category ([1]; ref Chen 2016): vLess-DILI-Concern
- Structural based (HCI) (human hepatocytes; In vitro Assay, ref Xu 2008): +VE
- In vivo DILI ([2]; ref Xu 2008): +VE

Compound: CCCCNc1ccc(C(=O)OCCN(C)C)cc1 [tetracaine]
- Structural based (HCI), In vitro Assay (human hepatocytes; [4]): -VE
- In vivo DILI [2, 5]: -VE

Compound: Nc1nc2nc[nH]c2c(=S)[nH]1 [thioguanine]
- Structural based (HCI) (human hepatocytes; In vitro Assay, ref Xu 2008): -VE
- Partition Hybrid HRM Score ([3]; In vitro Assay, ref Aleo 2019): -VE
- Ro2 Hybrid HRM Score ([3]; In vitro Assay, ref Aleo 2019): -VE

Compound: CC(C)(C)NC[C@H](O)COc1nsnc1N1CCOCC1 [timolol maleate]
- Structural based (HCI), In vitro Assay (human hepatocytes; [4]): -VE
- In vivo DILI [2, 5]: +VE

Compound: CN1C(=O)OC(C)(C)C1=O [trimethadione]
- DILI +VE (5-8), DILI -VE (-4) ([1]; ref Chen 2016): -VE
- DILI severity category ([1]; ref Chen 2016): Ambiguous DILI-concern
- Structural based (HCI) (human hepatocytes; In vitro Assay, ref Xu 2008): -VE
- In vivo DILI ([2]; ref Xu 2008): +VE

Compound: C[C@H](CCC(=O)O)[C@H]1CC[C@H]2[C@@H]3[C@@H](O)C[C@@H]4C[C@H](O)CC[C@]4(C)[C@H]3CC[C@]12C [ursodeoxycholic acid]
- DILI +VE (5-8), DILI -VE (-4) ([1]; ref Chen 2016): -VE
- DILI severity category ([1]; ref Chen 2016): Ambiguous DILI-concern
- Structural based (HCI) (human hepatocytes; In vitro Assay, ref Xu 2008): -VE
- In vivo DILI ([2]; ref Xu 2008): -VE

Compound: bacitracin
- DILI +VE (5-8), DILI -VE (-4) ([1]; ref Chen 2016): -VE
- DILI severity category ([1]; ref Chen 2016): vNo-DILI-Concern
- Structural based (HCI) (human hepatocytes; In vitro Assay, ref Xu 2008): -VE
- In vivo DILI ([2]; ref Xu 2008): -VE
